The molecules below were run against Escherichia coli DNA gyrase A/B tetramer (Escherichia coli (strain K12), UniProt P0AES4+P0AES6) (assay: DNA gyrase supercoiling activity fluorescence polarisation assay). Details: not given.
Assay type: biochemical
Experimental: DNA Gyrase Supercoiling Activity Fluorescence Polarisation Assay
The supercoiling reactions may be quenched by the addition of 10 microliters/well of 40 nM oligodeoxynucleotide probe in 3× triplex-forming buffer consisting of 150 mM NaCl, and 150 mM sodium acetate at pH 3.5. The oligodeoxynucleotide probe may be 5′-BODIPY-FL-labeled […]. After 60 minutes, the fluorescence anisotropy of the BODIPY-FL may be measured in a Tecan Ultra plate reader, using 485 nm excitation and 535 nm emission filters equipped with polarizers. The IC50 may be determined by nonlinear regression using two control reactions. The first contains no test compound but 0.8% DMSO (100% activity) while the second control reaction contains 5 μM Ciprofloxacin and 0.8% DMSO (0% activity).

Row | Compound | IC50
1 | C[C@@H]1CN2c3c(cc4c(-n5cncn5)noc4c3F)CC3(C(=O)NC(=O)NC3=O)[C@H]2[C@H](C)O1 (racemic) [Example 53, (2R,4S,4 aS)-rel-11-fluoro-2,4-dimethyl-8-(1H-1,2,4-triazol-1-yl)-1,2,4,4a-tetrahydro-2′H,6H-spiro[1,4-oxazino[4,3-a][1,2]oxazolo[4,5-g]quinoline-5,5′-pyrimidine]-2′,4′,6′(1′H,3′H)-trione] | 2800 nM
2 | Cc1nnsc1-c1noc2c(F)c3c(cc12)CC1(C(=O)NC(=O)NC1=O)[C@H]1[C@H](C)O[C@H](C)CN31 (racemic) [Example 72, (2R,4S,4aS)-rel-11-fluoro-2,4-dimethyl-8-(4-methyl-1,2,3-thiadiazol-5-yl)-1,2,4,4a-tetrahydro-2′H,6H-spiro[1,4-oxazino[4,3-a][1,2]oxazolo[4,5-g]quinoline-5,5′-pyrimidine]-2′,4′,6′(1′H,3′H)-trione] | 900 nM
3 | Cc1noc2c(F)c3c(cc12)CC1(C(=O)NC(=O)NC1=O)[C@H]1[C@H](C)O[C@H](C)CN31 (relative stereo) [Example 2, (2R,4S,4aS)-rel-11-fluoro-2,4,8-trimethyl-1,2,4,4a-tetrahydro-2′H,6H-spiro[isoxazolo[4,5-g][1,4]oxazino[4,3-a]quinoline-5,5′-pyrimidine]-2′,4′,6′(1′H,3′H)-trione] | 400 nM

Same assay, conditions: 5 nM enzyme, relaxed plasmid, 0.3 mM ATP, ambient temperature; read-out: E. coli DNA gyrase supercoiling IC50

Row | Compound | IC50
4 | C[C@@H]1CN2c3c(cc4c(NCc5ccccc5)noc4c3F)CC3(C(=O)NC(=O)NC3=O)[C@H]2[C@H](C)O1 (racemic) [Example 9, (2R,4S,4 aS)-rel-8-(benzylamino)-11-fluoro-2,4-dimethyl-1,2,4,4a-tetrahydro-2′H,6H-spiro[1,4-oxazino[4,3-a][1,2]oxazolo[4,5-g]quinoline-5,5′-pyrimidine]-2′,4′,6′(1′H,3′H)-trione] | 1700 nM
5 | C[C@@H]1CN2c3c(cc4c(NCc5ccccn5)noc4c3F)CC3(C(=O)NC(=O)NC3=O)[C@H]2[C@H](C)O1 (racemic) [Example 14, (2R,4 S,4aS)-rel-11-fluoro-2,4-dimethyl-8-[(pyridin-2-ylmethyl)amino]-1,2,4,4a-tetrahydro-2′H,6H-spiro[1,4-oxazino[4,3-a][1,2]oxazolo[4,5-g]quinoline-5,5′-pyrimidine]-2′,4′,6′(1′H,3′H)-trione] | 2000 nM
6 | C[C@@H]1CN2c3c(cc4c(-n5cc(I)cn5)noc4c3F)CC3(C(=O)NC(=O)NC3=O)[C@H]2[C@H](C)O1 (racemic) [Example 36, (2R,4S,4 aS)-rel-11-fluoro-8-(4-iodo-1H-pyrazol-1-yl)-2,4-dimethyl-1,2,4,4a-tetrahydro-2′H,6H-spiro[1,4-oxazino[4,3-a][1,2]oxazolo[4,5-g]quinoline-5,5′-pyrimidine]-2′,4′,6′(1′H,3′H)-trione] | 2100 nM
7 | C[C@@H]1CN2c3c(cc4c(C5CC5)noc4c3Cl)CC3(C(=O)NC(=O)NC3=O)[C@H]2[C@H](C)O1 (racemic) [Example 39, (2R,4S,4 aS)-rel-11-chloro-8-cyclopropyl-2,4-dimethyl-1,2,4,4a-tetrahydro-2′H,6H-spiro[1,4-oxazino[4,3-a][1,2]oxazolo[4,5-g]quinoline-5,5′-pyrimidine]-2′,4′,6′(1′H,3′H)-trione] | 600 nM
8 | C[C@@H]1CN2c3c(cc4c(-c5ncccn5)noc4c3Cl)CC3(C(=O)NC(=O)NC3=O)[C@H]2[C@H](C)O1 (racemic) [Example 42, (2R,4S,4 aS)-rel-11-chloro-2,4-dimethyl-8-(pyrimidin-2-yl)-1,2,4,4a-tetrahydro-2′H,6H-spiro[1,4-oxazino[4,3-a][1,2]oxazolo[4,5-g]quinoline-5,5′-pyrimidine]-2′,4′,6′(1′H,3′H)-trione] | 1200 nM
9 | C[C@@H]1CN2c3c(cc4c(-c5cncnc5)noc4c3Cl)CC3(C(=O)NC(=O)NC3=O)[C@H]2[C@H](C)O1 (racemic) [Example 44, (2R,4S,4 aS)-rel-11-chloro-2,4-dimethyl-8-(pyrimidin-5-yl)-1,2,4,4a-tetrahydro-2′H,6H-spiro[1,4-oxazino[4,3-a][1,2]oxazolo[4,5-g]quinoline-5,5′-pyrimidine]-2′,4′,6′(1′H,3′H)-trione] | 1000 nM
10 | C[C@@H]1CN2c3c(cc4c(-n5nccn5)noc4c3F)CC3(C(=O)NC(=O)NC3=O)[C@H]2[C@H](C)O1 (racemic) [Example 56, (2R,4S,4 aS)-rel-11-fluoro-2,4-dimethyl-8-(2H-1,2,3-triazol-2-yl)-1,2,4,4a-tetrahydro-2′H,6H-spiro[1,4-oxazino[4,3-a][1,2]oxazolo[4,5-g]quinoline-5,5′-pyrimidine]-2′,4′,6′(1′H,3′H)-trione] | 700 nM
11 | C[C@@H]1CN2c3c(cc4c(-c5nc(C(=O)N(C)C)cs5)noc4c3F)CC3(C(=O)NC(=O)NC3=O)[C@H]2[C@H](C)O1 (racemic) [Example 86, 2-[(2R,4S,4 aS)-rel-11-fluoro-2,4-dimethyl-2′,4′,6′-trioxo-1,1′,2,3′,4,4′,4a,6′-octahydro-2′H,6H-spiro[1,4-oxazino[4,3-a][1,2]oxazolo[4,5-g]quinoline-5,5′-pyrimidin]-8-yl]-N,N-dimethyl-1,3-thiazole-4-carboxamide] | 5000 nM
12 | C[C@@H]1CN2c3c(cc4c(C(F)(F)F)noc4c3F)CC3(C(=O)NC(=O)NC3=O)[C@H]2[C@H](C)O1 (racemic) [Example 92, (2R,4 S,4 aS)-rel-11-fluoro-2,4-dimethyl-8-(trifluoromethyl)-2,4,4a,6-tetrahydro-1H,1′H-spiro[isoxazolo[4,5-g][1,4]oxazino[4,3-a]quinoline-5,5′-pyrimidine]-2′,4′,6′(3′H)-trione] | 1400 nM
13 | C[C@@H]1CN2c3c(cc4c(C(F)F)noc4c3F)CC3(C(=O)NC(=O)NC3=O)[C@H]2[C@H](C)O1 (racemic) [Example 93, (2R,4S,4 aS)-rel-8-(difluoromethyl)-11-fluoro-2,4-dimethyl-2,4,4a,6-tetrahydro-1H,1′H-spiro[isoxazolo[4,5-g][1,4]oxazino[4,3-a]quinoline-5,5′-pyrimidine]-2′,4′,6′(3′H)-trione] | 700 nM
14 | C[C@@H]1CN2c3c(cc4c(C(=O)NCC(F)F)noc4c3F)CC3(C(=O)NC(=O)NC3=O)[C@H]2[C@H](C)O1 (racemic) [Example 94, (2R,4 S,4 aS)-rel-N-(2,2-difluoroethyl)-11-fluoro-2,4-dimethyl-2′,4′,6′-trioxo-2,2′,3′,4,4a,4′,6,6′-octahydro-1H,1′H-spiro[isoxazolo[4,5-g][1,4]oxazino[4,3-a]quinoline-5,5′-pyrimidine]-8-carboxamide] | 1600 nM
15 | C[C@@H]1CN2c3c(cc4c(-c5cnccn5)noc4c3Cl)CC3(C(=O)NC(=O)NC3=O)[C@H]2[C@H](C)O1 (racemic) [Example 120, (2R,4 S,4 aS)-rel-11-chloro-2,4-dimethyl-8-(pyrazin-2-yl)-2,4,4a,6-tetrahydro-1H,1′H-spiro[isoxazolo[4,5-g][1,4]oxazino[4,3-a]quinoline-5,5′-pyrimidine]-2′,4′,6′(3′H)-trione] | 200 nM
16 | CCNC(=O)c1noc2c(F)c3c(cc12)CC1(C(=O)NC(=O)NC1=O)[C@H]1[C@H](C)O[C@H](C)CN31 (racemic) [Example 138, (2R,4 S,4 aS)-rel-N-ethyl-11-fluoro-2,4-dimethyl-2′,4′,6′-trioxo-2,2′,3′,4,4a,4′,6,6′-octahydro-1H,1′H-spiro[isoxazolo[4,5-g][1,4]oxazino[4,3-a]quinoline-5,5′-pyrimidine]-8-carboxamide] | 1700 nM
17 | C[C@@H]1CN2c3c(cc4c(C(=O)N5CCC(F)(F)C5)noc4c3F)CC3(C(=O)NC(=O)NC3=O)[C@H]2[C@H](C)O1 (racemic) [Example 158, (2R,4 S,4 aS)-rel-8-(3,3-difluoropyrrolidine-1-carbonyl)-11-fluoro-2,4-dimethyl-2,4,4a,6-tetrahydro-1H,1′H-spiro[isoxazolo[4,5-g][1,4]oxazino[4,3-a]quinoline-5,5′-pyrimidine]-2′,4′,6′(3′H)-trione] | 1400 nM
18 | C[C@@H]1CN2c3c(cc4c(C(=O)NCc5ccnn5C)noc4c3F)CC3(C(=O)NC(=O)NC3=O)[C@H]2[C@H](C)O1 (racemic) [Example 162, (2R,4 S,4 aS)-rel-11-fluoro-2,4-dimethyl-N-((1-methyl-1H-pyrazol-5-yl)methyl)-2′,4′,6′-trioxo-2,2′,3′,4,4a,4′,6,6′-octahydro-1H,1′H-spiro[isoxazolo[4,5-g][1,4]oxazino[4,3-a]quinoline-5,5′-pyrimidine]-8-carboxamide] | 2100 nM
19 | C[C@@H]1CN2c3c(cc4c(N)noc4c3F)CC3(C(=O)NC(=O)NC3=O)[C@H]2[C@H](C)O1 (relative stereo) [Example 1, (2R,4S,4aS)-rel-8-amino-11-fluoro-2,4-dimethyl-1,2,4,4a-tetrahydro-2′H,6H-spiro[isoxazolo[4,5-g][1,4]oxazino[4,3-a]quinoline-5,5′-pyrimidine]-2′,4′,6′(1′H,3′H)-trione] | 500 nM
20 | C[C@@H]1CN2c3c(cc4c(-c5ccccc5)noc4c3F)CC3(C(=O)NC(=O)NC3=O)[C@H]2[C@H](C)O1 (relative stereo) [Example 3, (2R,4S,4aS)-rel-11-fluoro-2,4-dimethyl-8-phenyl-1,2,4,4a-tetrahydro-2′H,6H-spiro[isoxazolo[4,5-g][1,4]oxazino[4,3-a]quinoline-5,5′-pyrimidine]-2′,4′,6′(1′H,3′H)-trione] | 400 nM
21 | C[C@@H]1CN2c3c(cc4c(C5CC5)noc4c3F)CC3(C(=O)NC(=O)NC3=O)[C@H]2[C@H](C)O1 (relative stereo) [Example 4, (2R,4S,4aS)-rel-8-cyclopropyl-11-fluoro-2,4-dimethyl-1,2,4,4a-tetrahydro-2′H,6H-spiro[isoxazolo[4,5-g][1,4]oxazino[4,3-a]quinoline-5,5′-pyrimidine]-2′,4′,6′(1′H,3′H)-trione] | 300 nM
